The results in this text go back to patent publication US20170360726A1, “COMPOUNDS, COMPOSITIONS AND METHODS OF USE” (Aquinnah Pharmaceuticals, Inc., priority 2014, published 2017).

Read-outs that look alike come from different tables or passages of the source.

Experiment [1] concerns TDP-43 inclusions in PC12 cells stably expressing wild type (WT) TDP-43-GFP. Put plainly: Dose response assay for TDP-43 inclusion inhibition. To be noted: Rattus norvegicus, PC-12. Format: cell-based. The procedure:
Example 3. Dose Response Assay for TDP-43 Inhibition
Exemplary compounds of the invention were evaluated for efficacy in inhibiting TDP-43 inclusions using a dose response assay. Briefly, PC12 cells stably expressing wild type (WT) TDP-43-GFP were stressed with 15 μM to induce TDP-43 inclusions. The cells were then treated with exemplary compounds of the invention and the inhibitory effect on TDP-43 inclusions was observed using fluorescent microscopy. The ratio of cells with TDP-43 inclusions was calculated based on the total number of cells with detectable GFP expression. A 12-point dose response curve was generated, and the IC50 for each compound tested was determined.

For experiment [2], the system named is Embryonic mouse hippocampal neurons transduced with TDP-43 EGFP. Put plainly: Neuroprotection assay (dendrite length rescue). It counts as cell-based. To be noted: average rescue total dendrite length; compound at 10 times the IC50, treated DIV7, 9, 11, fixed DIV12. The procedure: Example 4. Neuroprotection Assay
1× Hank's balanced salt solution (Ca—/Mg, 500 mL) and 10 mM HEPES, pH 7.25-7.3 (IM stock, 5 mL)
MEM (Earle salts+/Glutamine, 95 mL), FBS (to 2.5%, 2.5 mL), Pen/Strep (1×, 1 mL), glutamine (1×, 1 mL), and D-glucose (0.6% w/v, 0.6 g)
neurobasal media (96 mL), B27 supplement (2 mL), Pen/Strep (1 mL), and glutamine (1 mL).
Embryonic mouse hippocampal neurons were cultured according to Kaech, S. and Banker, G. (2006) Nat Protoc 1:2406-2415 and dissected at […] from CD1 mice. Once all the hippocampi were removed, they were placed in a 15 mL conical Falcon tube on ice and brought to a final volume of 4.5 mL with CMF dissection buffer. 0.5 mL of a 2.5% trypsin-EDTA solution was then added, and the mixture was incubated at 37° C. for 15 min. […] Neurons were traced and analyzed using NeuronJ.
Results of the neuroprotection assay for exemplary compounds of the invention are summarized in Table 1, wherein A represents an average rescue total dendrite length of >150%; B represents an average rescue total dendrite length of 100-149%; C represents an average rescue total dendrite length of 50-99%; D represents an average rescue total dendrite length of 0-49%; E represents an average rescue total dendrite length of <0%; and ND signifies that the average rescue total dendrite length was not determined.

Setting [3] is: inhibition of TDP-43 inclusions, PC12 cells expressing WT TDP-43-GFP, 12-point dose response, fluorescent microscopy, read-out: IC50.

As a reminder, the IC50 is the concentration at which inhibition is half-maximal. As to `CCc1cccc(C)c1NS(=O)(=O)c1cnccc1C(=O)N1CCCC1` [Compound 101, N-(2-ethyl-6-methylphenyl)-4-(pyrrolidine-1-carbonyl)pyridine-3-sulfonamide], in experiment [1] (setting [3]), the IC50 is less than 100 nM. In experiment [2], the “Average Additive Dendrite Length (%)” value is listed as “C (C represents an average rescue total dendrite length of 50-99%)”. For `CCc1cccc(C)c1NS(=O)(=O)c1ccccc1C(=O)N1CCCC1` [Compound 100, N-(2-ethyl-6-methylphenyl)-2-(pyrrolidine-1-carbonyl)-benzenesulfonamide] the same measures were more than 500 nM and “C (C represents an average rescue total dendrite length of 50-99%)”. Take `CCc1cccc(C)c1NS(=O)(=O)c1cccnc1` [Compound 102, N-(2-ethyl-6-methylphenyl)pyridine-3-sulfonamide]: the half-inhibitory concentration (IC50) in experiment [1] lay within 101 to 250 nM.
